Measurements from patent publication US20250228958A1, “TSP1 INHIBITOR” (Daiichi Sankyo Company, Limited, priority 2022, published 2025).
Entries after “also recorded” stand apart in the source; their conditions may differ. Values belong to the molecule of their own block, whether it stands above or below them. Positions of bridges follow the written chain, without caps; N, C: chain ends. Non-standard residues stand in square brackets, D forms with d. Residues, ends and D or L forms follow the SMILES beside them. Chains are numbered I, II in the order given. No end group written: not given here. maleimide = maleimide-group-derived moiety in the linking group, forming a thioether bond with the thiol of a cysteine residue of the carrier molecule; KPEG = (2S)-6-amino-2-[[2-(methoxy-oligo(ethoxy))acetyl]amino]hexanoic acid (Lys with N-alpha methoxy-PEG acetyl); 2Nal = N[C@@H](Cc1ccc2ccccc2c1)C(=O)O; Gly(cPent) = N[C@H](C(=O)O)C1CCCC1; Agb = N=C(N)NCC[C@H](N)C(=O)O; Tle = CC(C)(C)[C@H](N)C(=O)O; hCys = N[C@@H](CCS)C(=O)O; P12P = not defined here

Key:
human TSP1 = biological target: T1, human TSP1 (Homo sapiens, UniProt P07996); assay: Cell adhesion inhibition assay (HUVEC adhesion to TSP1-coated plate); assay type: cell-based; conditions: inhibition of HUVEC adhesion to human TSP1-coated plate
T1 construct: Thrombospondin human platelet (Calbiochem, 605225); purchased Calbiochem 605225; host or cells: human platelets (natural source, not recombinant)
Description: • 384-well Low Flange Black Flat Bottom Polystyrene Not Treated Microplate (Corning, 3573) • Proteosave(registered trademark) SS 15 mL (Sumitomo Bakelite, MS-52150) • Thrombospondin human platelet (Calbiochem, 605225) • HUVEC (KURABO, KE-4109P10) • EGM-2 MV (Lonza, CC-3202): for HUVEC passaging • Collagen coated dish (IWAKI, 4020-010): for HUVEC passaging • Lipidure(registered trademark)-BL802 (NOF Corporation), 5% solution • DMEM low glucose (GIBCO, 11054-020) • Bovine serum albumin (BSA) solution 30% (Sigma A9205) • CellTiter-Glo 2.0 (Promega G9242) […]
To maintain human umbilical vein endothelial cells, HUVECs, EGM2-MV and a collagen coated dish were used (the cells were ceased to be used after 10th or 11th passage since the cell proliferation rate declined at this stage). […] After removal of supernatant, the cells were resuspended in a DMEM buffer, counted for cell number, and diluted to 6000 cells/10 μL. […]
The culture medium was removed, and the plate was washed twice with 30 L/well of HBSS/Hepes 0.5% BSA. […] Fluorescence emission was detected using EnVision Xcite Multilabel Reader (produced by Perkin Elmer).
On the basis of the measured fluorescence values, the IC50 values (nM) of the different cyclic peptides and conjugates for inhibition of cell adhesion were calculated. […]

[1] = Serum stability test, mouse serum; assay type: in vitro ADME
Description: (§1) • Mouse serum (BALB/c CrSlc, male, Japan SLC, Inc.) • Monkey serum (cynomolgus monkey, male, Japan SLC, Inc.) • Human serum (Caucasian, pool of 5 males and 5 females, KAC Co., Ltd.) • Phenacetin (Nacalai Tesque, Inc.) • Niflumic acid (Nacalai Tesque, Inc.) • Furosemide (Nacalai Tesque, Inc.) • Acetonitrile (FUJIFILM Wako Pure Chemical Corporation) • Methanol (FUJIFILM Wako Pure Chemical Corporation) • Formic acid (FUJIFILM Wako Pure Chemical Corporation) • Dimethyl sulfoxide (DMSO) (FUJIFILM Wako Pure Chemical Corporation)
(§2) Solutions of Phenacetin, niflumic acid, and furosemide were prepared in DMSO at 10 μg/ml, 150 μg/ml, and 200 μg/ml, respectively. 10 μg/ml of phenacetin in DMSO, 150 μg/ml of niflumic acid in DMSO, and 200 μg/ml of furosemide in DMSO were dissolved in a mixture of […]/methanol (75/25, v/v) (final concentrations: phenacetin; 1 ng/mL, niflumic acid: 15 ng/mL, and furosemide 20 ng/mL), and formic acid was added to the prepared test solution (final concentration: 1% (v/v)) to prepare a formic acid-containing IS solution.
(§3) The test substances were prepared in DMSO to a concentration of 10 mM each. Further, the solution was diluted with DMSO to a concentration of 2 mM to make a test substance solution.
(§4) Each serum was preincubated at 37° C. for 5 minutes, and then the test substance solution was added to a final concentration of 20 μM to initiate the reaction. The test substance-added serum was incubated at 37° C. At 0 and 4 hours after the start of the reaction, a portion of the serum was taken out and added to the formic acid-containing IS solution to stop the reaction, which was used as a measurement sample.
(§5) The test substance and IS (phenacetin, niflumic acid, and furosemide) in the measurement sample were measured by LC-MS/MS, and the peak area ratio (IS ratio) of the test substance to IS (any of phenacetin, niflumic acid, and furosemide) was calculated.
(§6) The percentage of the IS ratio at 4 hours after the start of the reaction relative to that at 0 hours after the start of the reaction was used as a residual ratio to evaluate serum stability.

[2] = Serum stability test, human serum; assay type: in vitro ADME; conditions: both sexes, residual ratio: IS ratio at 4 hours relative to 0 hours, 37° C.
Description: as §1, §2, §3, §4, §5, §6

[3] = Serum stability test, monkey serum; assay type: in vitro ADME, cynomolgus monkey; conditions: male, residual ratio: IS ratio at 4 hours relative to 0 hours, 37° C.
Description: as §1, §2, §3, §4, §5, §6

[4] = tested on: C57BL/6 mice, ischemic limb blood flow; assay: Blood flow improvement measurement tests (femoral artery/vein ligation and excision, laser Doppler); assay type: in vivo, mouse; conditions: for blood flow AUC, % of vehicle group mean: blood flow AUC from beginning to end of measurement, ratio to vehicle-treated group mean; for %, ischemia/nonischemia (blood flow on the last day of measurement): mean ± standard error, ratio of ischemic limb flow to non-ischemic limb flow
Description: Six to seven-week-old C57BL/6 mice were purchased from Charles River Laboratories Japan Inc., and acclimated over six days by feeding with a FR-2 solid diet (produced by Funabashi Farm Co., Ltd.). The rearing facility switched between light and dark modes in a 12-hour cycle with light turning on at 7 a.m. and turning off at 7 p.m. Under isoflurane inhalation anaesthesia, the left thighs of the mice were dissected, and the superficial femoral arteries and veins (from just below the deep femoral arteries to the popliteal artery and vein) were ligated and excised. […] Five mice were used for each treatment group.
Blood flows were measured in ischemic (left) and non-ischemic (right) limbs using a laser Doppler perfusion imager (PeriScan PIM III, Moor LD12-HR). The improvement of blood flow was evaluated by the ratio of ischemic limb flow to non-ischemic limb flow. […] In addition, blood flow AUC was calculated to determine the ratio (%) of the mean value of the test substance-treated group to the mean value of the vehicle-treated group.

[5] = biological target: Thrombospondin human platelet (Calbiochem, 605225) (human, UniProt P07996 19-1170); assay: cell-based or functional assay
Thrombospondin human platelet (Calbiochem, 605225), sequence (P07996 19-1170 limits assumed): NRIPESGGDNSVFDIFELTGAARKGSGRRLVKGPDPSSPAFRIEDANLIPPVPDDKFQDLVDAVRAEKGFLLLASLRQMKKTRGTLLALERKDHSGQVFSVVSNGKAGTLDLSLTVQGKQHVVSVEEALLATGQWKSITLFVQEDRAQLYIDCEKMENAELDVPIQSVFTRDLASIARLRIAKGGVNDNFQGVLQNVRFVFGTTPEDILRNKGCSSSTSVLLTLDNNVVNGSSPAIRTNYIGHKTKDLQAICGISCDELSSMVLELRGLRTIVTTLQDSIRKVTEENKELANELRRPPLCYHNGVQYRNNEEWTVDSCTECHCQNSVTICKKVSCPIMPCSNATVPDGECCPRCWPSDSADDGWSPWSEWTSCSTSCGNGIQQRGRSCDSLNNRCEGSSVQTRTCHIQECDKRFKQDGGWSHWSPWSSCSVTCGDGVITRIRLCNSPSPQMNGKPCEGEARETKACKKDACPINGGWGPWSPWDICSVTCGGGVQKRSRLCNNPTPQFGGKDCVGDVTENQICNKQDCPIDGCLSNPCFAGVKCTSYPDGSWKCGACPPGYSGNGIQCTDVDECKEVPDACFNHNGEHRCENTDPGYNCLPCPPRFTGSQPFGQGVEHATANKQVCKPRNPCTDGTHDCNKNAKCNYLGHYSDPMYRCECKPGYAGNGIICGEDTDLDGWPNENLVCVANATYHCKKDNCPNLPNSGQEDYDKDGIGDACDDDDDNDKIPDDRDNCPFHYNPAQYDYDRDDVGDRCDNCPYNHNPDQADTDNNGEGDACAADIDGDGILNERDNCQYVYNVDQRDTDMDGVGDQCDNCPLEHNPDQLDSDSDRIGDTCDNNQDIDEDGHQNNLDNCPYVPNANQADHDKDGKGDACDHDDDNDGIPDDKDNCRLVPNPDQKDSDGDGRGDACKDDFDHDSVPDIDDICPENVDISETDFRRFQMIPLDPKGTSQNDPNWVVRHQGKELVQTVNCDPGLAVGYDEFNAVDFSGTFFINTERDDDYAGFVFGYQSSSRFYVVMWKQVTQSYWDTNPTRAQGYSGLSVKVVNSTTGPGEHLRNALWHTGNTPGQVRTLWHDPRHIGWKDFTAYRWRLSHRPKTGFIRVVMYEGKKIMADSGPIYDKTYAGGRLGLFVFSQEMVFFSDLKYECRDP

T1 sequence (P07996 19-1170): as the sequence (P07996 19-1170 limits assumed) above

IC50 (human TSP1): 12.6 nM
remaining at 4 h, 20 μM ([1]; male, BALB/c CrSlc, mouse, mouse serum, residual ratio: IS ratio at 4 hours relative to 0 hours, 20 μM, 37° C.): 101%
remaining at 4 h, 20 μM [2]: 93.9%
remaining at 4 h, 20 μM [3]: 90.6%
Molecule: N=C(N)NCCC[C@@H]1NC(=O)[C@H](Cc2ccc3ccccc3c2)NC(=O)CSC[C@@H](C(N)=O)NC(=O)[C@H](C2CCCC2)NC(=O)[C@H](Cc2c[nH]c3ccccc23)NC(=O)[C@H](CCCNC(=N)N)NC(=O)[C@@H]2CCSSCC[C@H](NC1=O)C(=O)NCC(=O)N[C@@H](CCNC(=N)N)C(=O)N[C@@H](CC(N)=O)C(=O)N[C@@H](Cc1c[nH]c3ccccc13)C(=O)N2 [Peptide-1] ({CH2CO}-[2Nal]R[hCys]G[Agb]NW[hCys]RW[Gly(cPent)]C-NH2; disulfide 3-8; thioether N-12)
serum stability (in words) ([1]; statement covers mouse, monkey and human serum, 4 hours): high serum stability; also recorded: higher serum stability

Molecule: CC(=O)N[C@H]1[C@H]([C@H](O)[C@H](O)CO)O[C@](CO)(OC[C@H]2O[C@@H](OC3[C@@H](CO)C[C@H](O[C@@H]4[C@@H](OC[C@H]5OC(O[C@H]6[C@H](O)[C@@H](NC(C)=O)C(O[C@H]7[C@H](O)[C@@H](NC(C)=O)C(OCC(=O)NCCCC[C@H](NC(=O)CNC(=O)CNC(=O)CNC(=O)CNC(=O)[C@@H]8CSCC(=O)N[C@@H](Cc9ccc%10ccccc%10c9)C(=O)N[C@H](CCCNC(=N)N)C(=O)N[C@@H](CO)C(=O)NCC(=O)N[C@@H](CCNC(=N)N)C(=O)N[C@H](CC(N)=O)C(=O)N[C@@H](Cc9c[nH]c%10ccccc9%10)C(=O)N[C@@H](C(C)N)C(=O)N[C@H](CCCNC(=N)N)C(=O)N[C@@H](Cc9c[nH]c%10ccccc9%10)C(=O)N[C@@H](C9CCCC9)C(=O)N8)C(=O)NCCOCCOCCOCCOCCOCCOCCOCCOCCOCCOCCOCCOCCC(=O)NCCOCCOCCOCCOCCOCCOCCOCCOCCOCCOCCOCCOCCC(=O)N[C@H](CCCCNC(=O)CCN8C(=O)CC(C)C8=O)C(N)=O)O[C@@H]7CO)O[C@@H]6CO)[C@@H](O)[C@@H](O[C@H]6O[C@H](CO)[C@@H](O)[C@H](O)[C@@H]6O[C@@H]6O[C@H](CO)C(O[C@@H]7O[C@H](CO[C@]8(C(=O)O)C[C@H](O)[C@@H](NC(C)=O)[C@H]([C@H](O)[C@H](O)CO)O8)[C@H](O)[C@H](O)[C@H]7O)[C@H](O)[C@H]6NC(C)=O)[C@@H]5O)O[C@H](CO)[C@@H](O)[C@@H]4O)[C@H](NC(C)=O)[C@H]3O)[C@H](O)[C@@H](O)[C@H]2O)C[C@@H]1O (some centres unmarked) [Conjugate-56]
blood flow AUC, % of vehicle group mean ([4]; 0.3 mg/kg): 187.6%
%, ischemia/nonischemia (blood flow on the last day of measurement) ([4]; 0.3 mg/kg): 40.2 ± 5.6%
blood flow AUC, % of vehicle group mean ([4]; 1 mg/kg): 318.4%
%, ischemia/nonischemia (blood flow on the last day of measurement) ([4]; 1 mg/kg): 74.8 ± 11.0%

IC50 (human TSP1): 12.6 nM
Molecule: CC(C)(C)[C@@H]1NC(=O)[C@H](Cc2ccc3ccccc3c2)NC(=O)CSC[C@@H](C(N)=O)NC(=O)[C@H](C2CCCC2)NC(=O)[C@H](Cc2c[nH]c3ccccc23)NC(=O)[C@H](CCCNC(=N)N)NC(=O)[C@@H]2CCSSCC[C@H](NC1=O)C(=O)NCC(=O)N[C@@H](CCCNC(=N)N)C(=O)N[C@@H](CC(N)=O)C(=O)N[C@@H](Cc1c[nH]c3ccccc13)C(=O)N2 [Peptide-8] ({CH2CO}-[2Nal][Tle][hCys]GRNW[hCys]RW[Gly(cPent)]C-NH2; disulfide 3-8; thioether N-12)

IC50 for inhibition of cell adhesion (HUVEC to coated human TSP1) [5]: 12.8 nM
B1: Conjugate-10 (other)
peptide: [2Nal]R[hCys]GRDW[hCys]RW[Gly(cPent)]CGSGSDD[KPEG][P12P][P12P]K(maleimide)-NH2
chain: DKTHTCPPCPAPEAAGGPSVFLFPPKPKDTLMISRTPEVTCVVVDVSHEDPEVKFNWYVDGVEVHNAKTKPREEQYNSTYRVVSVLTVLHQDWLNGKEYKCKVSNKALAAPIEKTISKAKGQPREPQVYTLPPSREEMTKNQVSLTCLVKGFYPSDIAVEWESNGQPENNYKTTPPVLDSDGSFFLYSKLTVDKSRWQQGNVFSCSVMHEALHNHYTQKSLSLSPGK
modifications: disulfide I:3-I:8; not fully specified; reading uncertain; also: Lys22 maleimide side chain thioether-linked to Fc hinge Cys6 and Cys9 (Eu 226, 229), thioether at chain A 1 at chain A 12 to a chain's N-terminus
